The values that follow come from patent publication US10544090B2, “Anthraquinone analogs and methods of making and using thereof” (Georgia State University Research Foundation, Inc., priority 2012, dated 2020).

Holding throughout (format): cell-based
The test system of one assay is MOLT4. In words: Cytotoxicity against cancer cell lines (Example 5), Molt4. Particulars: Tables 5-12; read-out: IC50 Molt4. As to the method:
(§1) All of the compounds synthesized were tested against a number of cancer cell lines: Hela KB, Cos7, Molt4, K562, EU1, and T98G. The cancer cell lines vary from leukemia cell lines (Molt4, EU, K562) to solid-state tumor cell lines (Hela, KB, Cos7) and the drug resistant cell lines (T98G).

A further assay concerns HeLa. The experiment in a line: Cytotoxicity against cancer cell lines (Example 5), Hela. The conditions noted are these: Tables 5-12. How it is done: as §1
A further assay relates to KB. In words: Cytotoxicity against cancer cell lines (Example 5), KB. Particulars: Tables 5-12. How it is done:
as §1

A further assay deals with EU1. The experiment in a line: Cytotoxicity against cancer cell lines (Example 5), EU1. The conditions noted are these: Tables 5-12. How it is done:
as §1

The subject of the next assay is K562. The experiment in a line: Cytotoxicity against cancer cell lines (Example 5), K562. The conditions noted are these: Tables 5-12. As to the method: as §1
The test system of another assay is T98G. The experiment in a line: Cytotoxicity against cancer cell lines (Example 5), T98G. The conditions noted are these: Tables 5-12; drug resistant cell line. How it is done:
as §1

A further assay concerns Cos7. In words: Cytotoxicity against cancer cell lines (Example 5), Cos7. The conditions noted are these: Tables 5-12. As to the method: as §1

Turning to `CCOc1cccc2c1C(=O)c1c(OCC)cc(NC(=O)CCCCl)cc1C2=O` [BW-AQ-179], the half-inhibitory concentration (IC50) was 15.3 µM with MOLT4; 6.25 µM in the assay with HeLa; < 6.25 µM in the assay with KB; 17.6 µM in the assay on EU1; 10.7 µM in the assay with K562; 50 µM with T98G.

Turning to `[N-]=[N+]=NCCOc1cccc2c1C(=O)c1c(OCCN=[N+]=[N-])cc(C(=O)N=[N+]=[N-])cc1C2=O` [BW-AQ-122], the IC50 in the assay with MOLT4 was > 1.6 µM; in the assay with HeLa, > 12.5 µM; with KB, > 50 µM; in the assay on K562, > 6.25 µM; with Cos7, > 50 µM; with T98G it was > 12.5 µM.

As for `C=CCOc1cccc2c1C(=O)c1c(OCC=C)cc(C(=O)N=[N+]=[N-])cc1C2=O` [BW-AQ-154], the IC50 in the assay with MOLT4 was 6.66 µM; in the assay with HeLa it was 24.3 µM; in the assay with KB it was > 50 µM; in the assay on EU1, 3 µM; in the assay with K562, 19.5 µM; in the assay with Cos7, 19.4 µM. The IC50 in the assay with T98G was > 50 µM.

`COc1cccc2c1C(=O)c1c(OC)cc(NC(=O)CCCl)cc1C2=O` [BW-AQ-173]: the IC50 in the assay with MOLT4 was > 25 µM; in the assay on HeLa it was 50 µM; in the assay with KB, 50 µM; with EU1 it was 25 µM; in the assay with K562 it was > 25 µM; in the assay with T98G, > 50 µM.

Consider `O=C1c2cccc(O)c2C(=O)c2c(O)cc(-c3cccs3)cc21` [BW-AQ-140], for which the 50% inhibitory concentration (IC50) amounted to 0.209 ± 0.044 µM with MOLT4; 3.1 ± 0.68 µM with HeLa; 3.4 ± 1.02 µM with KB; 0.69 ± 0.152 µM in the assay on EU1; 3.2 ± 1.5 µM in the assay on K562; 2.2 ± 0.41 µM with Cos7. For the same molecule, in the assay with T98G, half-maximal inhibition (IC50) was put at 13.8 ± 4 µM.

With `COc1cccc2c1C(=O)c1c(OC)cc(NS(=O)(=O)CCl)cc1C2=O` [BW-AQ-138], the IC50 was > 1.6 µM in the assay on MOLT4; > 50 µM with HeLa; > 50 µM in the assay on KB; > 6.25 µM in the assay on K562; > 50 µM in the assay on Cos7; > 50 µM in the assay on T98G.

Regarding `CCOc1cccc2c1C(=O)c1c(OCC)cc(NC(=O)CNC)cc1C2=O` [BW-AQ-167], the 50% inhibitory concentration (IC50) was determined as 21.5 µM in the assay on MOLT4; 0.753 µM in the assay on HeLa; 1.54 µM in the assay with KB; 13.6 µM in the assay with EU1; 2.05 µM in the assay with K562; 5.51 µM in the assay on Cos7. Also, in the assay with T98G, half-maximal inhibition (IC50) required 11.2 µM.

With `COc1cccc2c1C(=O)c1c(OC)cc(NC(C)=O)cc1C2=O` [BW-AQ-134], the IC50 in the assay on MOLT4 was > 1.6 µM; with HeLa, > 50 µM; in the assay on KB, > 50 µM; with K562, > 6.25 µM; in the assay on Cos7 it was > 50 µM; in the assay on T98G it was > 50 µM.

For `[N-]=[N+]=NCCOc1cccc2c1C(=O)c1c(OCCN=[N+]=[N-])cc(N)cc1C2=O` [BW-AQ-123], the IC50 in the assay on MOLT4 is > 1.6 µM; with HeLa, > 50 µM; in the assay on KB it was 20.5 µM; with K562, > 6.25 µM; with T98G, > 12.5 µM.

`COc1cccc2c1C(=O)c1c(OC)cc(NC(=O)C(F)(F)F)cc1C2=O` [BW-AQ-132]: the half-maximal inhibitory concentration (IC50) in the assay on MOLT4 was > 1.6 µM; with HeLa it was > 50 µM; in the assay with KB, > 50 µM; in the assay with K562, > 6.25 µM; in the assay with Cos7, > 50 µM; in the assay on T98G it was > 12.5 µM.

`CN1CCN(CC(=O)Nc2cc(O)c3c(c2)C(=O)c2cccc(O)c2C3=O)CC1` [BW-AQ-114]: the 50% inhibitory concentration (IC50) with MOLT4 is 0.284 ± 0.021 µM; in the assay with HeLa, 3.9 ± 1 µM; in the assay on KB, 10.2 ± 2.26 µM; in the assay on K562 it was 0.84 ± 0.36 µM; in the assay with Cos7, 2 ± 0.6 µM; with T98G, > 12.5 µM.

Regarding `CCCOC(=O)c1cc(OCCC)c2c(c1)C(=O)c1cccc(OCCC)c1C2=O` [BW-AQ-147], the half-maximal inhibitory concentration (IC50) in the assay on MOLT4 was > 25 µM; in the assay on HeLa, > 50 µM; in the assay with KB it was > 50 µM; with EU1 it was > 25 µM; with K562, > 25 µM; in the assay on T98G, > 50 µM.

As for `COc1cccc2c1C(=O)c1c(OC)cc(NC(=O)CC#N)cc1C2=O` [BW-AQ-172], the 50% inhibitory concentration (IC50) in the assay with MOLT4 is > 25 µM; in the assay on HeLa, > 50 µM; in the assay on KB it was < 6.25 µM; in the assay on EU1, > 25 µM; with K562, > 25 µM; in the assay with T98G, > 50 µM.

Consider `COCC(=O)Nc1cc(OC)c2c(c1)C(=O)c1cccc(OC)c1C2=O` [BW-AQ-170], for which the IC50 was > 25 µM with MOLT4; > 50 µM in the assay with HeLa; > 50 µM in the assay on KB; > 25 µM with EU1; > 25 µM in the assay on K562; > 50 µM in the assay on T98G.

For the molecule `CCOc1cccc2c1C(=O)c1c(OCC)cc(NC(=O)CN)cc1C2=O` [BW-AQ-166], the IC50 was > 25 µM in the assay on MOLT4; 11 µM in the assay with HeLa; 18.8 µM in the assay with KB; > 25 µM in the assay on EU1; > 25 µM in the assay on K562; 37.3 µM in the assay on T98G.

Consider `COC(=O)c1cc(OCCN=[N+]=[N-])c2c(c1)C(=O)c1cccc(OCCN=[N+]=[N-])c1C2=O` [BW-AQ-120], for which the IC50 in the assay with MOLT4 is > 1.6 µM; with HeLa, > 12.5 µM; in the assay on KB it was > 50 µM; with K562 it was > 6.25 µM; in the assay with Cos7, ~50 µM; in the assay on T98G, > 12.5 µM.

Consider `COc1cccc2c1C(=O)c1c(OC)cc(NC(=O)C(F)F)cc1C2=O` [BW-AQ-171], for which the half-inhibitory concentration (IC50) was > 25 µM in the assay on MOLT4; > 50 µM in the assay with HeLa; 50 µM in the assay with KB; > 25 µM with EU1; > 25 µM in the assay with K562; > 50 µM with T98G.

With `[N-]=[N+]=NCCOc1cccc2c1C(=O)c1c(OCCN=[N+]=[N-])cc(C(=O)O)cc1C2=O` [BW-AQ-121], the concentration for half-maximal inhibition (IC50) in the assay on MOLT4 was > 1.6 µM; with HeLa it was > 12.5 µM; in the assay on KB it was > 50 µM; with K562 it was > 6.25 µM; in the assay with Cos7, > 50 µM; in the assay with T98G, > 12.5 µM.

Consider `CCOc1cccc2c1C(=O)c1c(OCC)cc(NC(=O)COCc3ccccc3)cc1C2=O` [BW-AQ-182], for which the IC50 was 16.8 µM with MOLT4; 47.3 µM in the assay with HeLa; > 50 µM in the assay with KB; 16.8 µM in the assay with EU1; > 25 µM in the assay on K562; > 50 µM in the assay with T98G.

On to `COc1cccc2c1C(=O)c1c(OC)cc(NC(=O)CN=[N+]=[N-])cc1C2=O` [BW-AQ-137], for which the concentration for half-maximal inhibition (IC50) with MOLT4 was > 1.6 µM; in the assay with HeLa, 24.6 µM; in the assay with KB, 23.6 µM; with K562 it was > 6.25 µM; with Cos7 it was > 50 µM; with T98G it was > 50 µM.

With `COc1cccc2c1C(=O)c1c(OC)cc(NC(=O)CCCCl)cc1C2=O` [BW-AQ-174], the IC50 is > 25 µM in the assay on MOLT4; > 50 µM in the assay on HeLa; > 50 µM with KB; > 25 µM in the assay with EU1; > 25 µM in the assay with K562; > 50 µM in the assay with T98G.

Take `COc1cccc2c1C(=O)c1c(OC)cc(NC(=O)COCc3ccccc3)cc1C2=O` [BW-AQ-175]: the IC50 is 25 µM with MOLT4; > 50 µM in the assay on HeLa; 33.6 µM in the assay on KB; 20.5 µM with EU1; > 25 µM with K562; > 50 µM with T98G.

The term IC50 denotes the concentration at which inhibition is half-maximal.
